Test results from US6245738A, “Cytokine restraining agents” (Trega Biosciences, Inc., priority 1994, dated 2001).
Square brackets hold non-standard residues; d marks the D form. Peptide text beside a SMILES is read from it.

Tests used:
TNF-α [1] = assay: Reduction of LPS-induced TNF-α levels in mice (ip peptide), plasma ELISA; type: in vivo, Balb/c female mice; conditions: 1 min before 5 mg/kg LPS ip, vs control mice
Experimental: Balb/c female mice weighing approximately 20 g were placed into two groups, a control group and a treated group. Five mg/kg of LPS in 0.9% saline was administered by intraperitoneal (ip) injection into the control mice. Mice in the treated group were first injected ip with 30 μg EX-2 or 150 μg EX-3 in saline, then, one minute after EX-2 or EX-3 was administered, the mice received LPS as described for the control group.
Blood samples were collected from the orbital sinus of treated and control mice at various times up to four hours after LPS was administered. The plasma was separated by centrifugation at 3000×g for 5 min, then diluted with four volumes of 1× phosphate buffer saline (pH 7.4) containing 1% bovine serum albumin. A 100 μl sample of serum was assayed by ELISA for TNF-α (Genzyme; Cambridge Mass.).
The mean (+/-SEM) TNF-α level in six mice from each group was determined and the percent reduction in TNF levels was calculated.

LPS-induced lethality [2] = assay: Lipopolysaccharide-induced lethality (ip peptide); type: in vivo, adult female Balb/c mice; conditions: 11 × 300 μg/mouse ip (3.3 mg total), every 4 hr; 0.6 mg LPS
Experimental: These experiments were performed based on information reported by Rivier et al., Endocrinology 125:2800-2805 (1989), which is incorporated herein by reference. Adult female Balb/c mice were provided food and water ad libitum. Mice were injected ip every four hours for 40 hr with 30 to 300 μg EX-2 or EX-3 in 0.2 ml saline (treated group) or with 0.2 ml saline, alone (control group) (10 mice per group). Immediately following the first injection, 0.6 mg LPS endotoxin in 0.2 ml saline was administered to each mouse. Following LPS injection, EX-2 or saline was administered to the treated mice or the control mice, respectively, every 4 hr for 36 hr.

[3] = system: arachidonic acid-induced ear swelling; assay: Arachidonic acid-induced ear swelling; type: in vivo, female Balb/c mice; conditions: 100 μg/mouse ip, 30 min prior to AA; 60 min after AA application
Experimental: Experiments were performed using female Balb/c mice weighing 18-23 grams. Saline or 100 μg EX-2 or EX-3 was administered ip, 30 min prior to topical application of arachidonic acid (AA). A 10 μl pipet was used to apply 10 μl AA solution (100 mg/ml ethanol; Calbiochem-Novabiochem; San Diego, Calif.) to the inner and outer surfaces of the right ear of each mouse. Ten μl ethanol, alone, was applied to the inner and outer surface of the left ear of each mouse. Ear thickness was measured with a hand-held spring loaded caliper immediately before and 60 min after AA application. Increase in ear thickness was calculated by subtracting the change observed in the control ear from the change observed in AA-treated ear. The value for each group (saline and control) is the average of the swelling observed in the individual mice in each group. The percent reduction of swelling is based on the swelling observed in the saline control group.

TNF-α [4] = assay: LPS-induced TNF-α levels, orally administered peptide (gavage); type: in vivo, Balb/c female mice; conditions: 1 min before 0.1 mg LPS ip
Experimental: The ability of orally administered cytokine restraining agents to reduce LPS-induced TNF-α levels also was examined. Balb/c female mice (20 g) were administered 150 μg or 300 μg EX-2, EX-3, EX-4 or EX-5 in 100 μl saline by gavage. Control mice received 100 μl saline, alone. One minute later, 0.1 mg LPS was administered by ip injection. Samples were collected and TNF-α levels were determined as described in Example III, above.
The mean TNF-α levels in the mice from each group (n=9-20) was determined and the percent reduction in TNF-α levels was calculated.

LPS-induced lethality [5] = assay: LPS-induced lethality, orally administered peptide (gavage); type: in vivo, adult female Balb/c mice; conditions: 0.6 mg LPS ip
Experimental: The LPS-induced lethality studies were performed based on information reported by Rivier et al., supra, 1989. Adult female Balb/c mice were provided food and water ad libitum. Mice were administered 150 μg or 300 μg EX-2, EX-3, EX-4 or EX-5 in 100 μl saline by gavage every 4 hr for 40 hr (total doses of 1.65 mg and 3.3 mg, respectively). Control mice received 100 μl saline, alone. Immediately following the first dose of cytokine restraining agent or saline, 0.6 mg LPS in 0.2 ml saline was administered by ip injection.

[6] = system: IL-1β-induced hyperalgesia; assay: Interleukin-1β-induced hyperalgesia, paw pressure test; type: in vivo, adult male Sprague-Dawley rats; conditions: 1 μg ip, 20 min before intraplantar IL-1β; 2 hr after IL-1
Experimental: These experiments were performed using a modification of the methods described by Poole et al., Br. J. Pharmacol. 106:489-492 (1992); Follenfant et al., Br. J. Pharmacol. 98:41-43 (1989); and Randall and Sellito, Arch. Internatl. Pharmacodyn. 111:409-419 (1957), each of which is incorporated herein by reference. Adult male Sprague-Dawley rats (175-275 g) were tested for hyperalgesia by a paw pressure technique using variable pressure instrumentation (IITC Life Sciences; Woodland Hills, Calif.). Rats were acclimated to the housing environment and were handled for three days prior to beginning a training session. On the day before the hyperalgesia experiments was to begin, each rat was placed into a sock and two variable paw pressure tests were performed 15 min apart. […] Approximately 5-10% of the rats were non-responders and were eliminated from further experiments.
Animals that responded to the paw pressure were pretreated by ip injection of various concentrations of EX-2 in a volume of 1 ml/kg (treated) or saline, alone (control). After 20 min, 100 μl of IL-1β (1U/100 μl) was administered to rats via intraplantar injection. Two hr after IL-1 administration, rats were subjected to two additional paw pressure tests and the increase in mm Hg of pressure that could be applied to the EX-2-treated rats as compared to the control rats was determined.

interleukin-6 (IL-6) = assay: Reduction of LPS-induced interleukin-6 levels in mice, IL-6-specific ELISA; type: in vivo, Balb/c mice; conditions: 300 μg/mouse (Table I), LPS treated mice; vs control mice
Experimental: Balb/c mice were grouped and treated as described in Example III, above. Blood samples were obtained from the orbital sinus at various times up to six hours and serum was collected and diluted as described above. A 100 μl aliquot was assayed for IL-6 levels using an IL-6-specific ELISA by a modification of the method of Starnes et al., J. Immunol. 145:4185-4194 (1990), which is incorporated herein by reference.
The mean (+/-SEM) IL-6 level in six mice from each group was determined and the percent reduction in IL-6 was calculated.

[7] = system: LPS-induced PMN infiltration in lungs; assay: Adult respiratory distress syndrome: PMN count in broncho-alveolar lavage after intratracheal LPS; type: in vivo, male Harlan Sprague-Dawley rats; conditions: 100 μg/kg ip at 0, 2 and 4 hr; lavage at 6 hr after intratracheal LPS 5 mg/kg
Experimental: These experiments were performed using a modification of the methods described by Ulich et al., Am. J. Pathol. 141:61-68 (1992) and by Wheelden et al., Lab. Animals 26:29-37 (1992), each of which is incorporated herein by reference. Male Harlan Sprague-Dawley rats were anesthetized using a mixture of 70 mg/kg ketamine and 6 mg/kg rompun injected ip. A 2-3 cm incision was made in the neck of each anesthetized rat and its trachea was exposed by blunt dissection of the surrounding soft tissue. The rats were suspended on a near vertical slab and intratracheal injections were performed by inserting into the exposed trachea, at a point 1 cm posterior to the larynx, a 25G×1/2 inch needle attached to a 1 cc syringe.
Each rat received 0.5 ml/kg of saline or 0.5 ml/kg of 10 mg/ml (5 mg/kg) LPS endotoxin via slow intratracheal administration. Immediately following administration of the LPS endotoxin, rats were injected ip with 1 ml/kg of either saline (control) or saline containing various concentrations of EX-2 (treated). The rats were maintained in the elevated position for 1-2 min to facilitate distribution of the LPS and saline into the lung. The incisions were closed and the rats were allowed to recover. […]
The total polymorphonuclear leukocytes (PMN; neutrophils) in the broncho-alveolar lavage fluid were counted in the EX-2-treated rats and compared with the number in the control rats.

[8] = 3.3 mg total (300 μg by gavage every 4 hr for 40 hr)

CC(=O)N[C@H](C(=O)N[C@@H](CCC(N)=O)C(=O)N[C@@H](Cc1c[nH]cn1)C(=O)N[C@H](Cc1ccccc1)C(=O)N[C@@H](CCCNC(=N)N)C(=O)N[C@H](Cc1c[nH]c2ccccc12)C(=O)NCC(N)=O)C1CCCCC1 [EX-3, Ac-(cyclohexyl)Gly-Gln-His-(D)Phe-Arg-(D)Trp-Gly-NH2]
Reduction in TNF levels (TNF-α [1]; 150 μg/mouse ip): 56%
Inhibition of LPS-induced Lethality (increase in survival) (LPS-induced lethality [2]): 86%
Reduction in arachidonic acid-induced Ear Swelling [3]: 62%
percent reduction in TNF-α levels, oral (TNF-α [4]; 150 μg by gavage): 49%
percent reduction in TNF-α levels, oral (TNF-α [4]; 300 μg by gavage): 40%

CC(=O)N[C@@H](Cc1c[nH]cn1)C(=O)N[C@H](Cc1ccccc1)C(=O)N[C@@H](CCCNC(=N)N)C(=O)N[C@H](Cc1c[nH]c2ccccc12)C(N)=O [EX-5, Ac-His-(D)Phe-Arg-(D)Trp-NH2]
increase in survival, oral (LPS-induced lethality [5]; 1.65 mg total (150 μg by gavage every 4 hr for 40 hr)): 68%
increase in survival, oral (LPS-induced lethality [5]; [8]): 44%

CC(=O)N[C@@H](Cc1c[nH]cn1)C(=O)N[C@H](Cc1ccccc1)C(=O)N[C@@H](CCCNC(=N)N)C(=O)N[C@H](Cc1c[nH]c2ccccc12)C(=O)NCC(N)=O [EX-4, Ac-His-(D)Phe-Arg-(D)Trp-Gly-NH2] (Ac-H[dF]R[dW]G-NH2)
increase in survival, oral (LPS-induced lethality [5]; [8]): 63%
percent reduction in TNF-α levels, oral (TNF-α [4]; 300 μg by gavage): 44%

CCCC[C@H](NC(C)=O)C(=O)N[C@@H](CCC(N)=O)C(=O)N[C@@H](Cc1c[nH]cn1)C(=O)N[C@H](Cc1ccccc1)C(=O)N[C@@H](CCCNC(=N)N)C(=O)N[C@H](Cc1c[nH]c2ccccc12)C(=O)NCC(N)=O [EX-2, Ac-Nle-Gln-His-(D)Phe-Arg-(D)Trp-Gly-NH2]
Reduction in IL-1-induced Hyperalgesia (increase in tolerated paw pressure) [6]: 125%
Reduction in TNF levels (TNF-α [1]; 30 μg/mouse ip): 50%
Reduction in IL-6 levels (interleukin-6 (IL-6)): 60%
Reduction in LPS-induced PMN Count [7]: 58%
Inhibition of LPS-induced Lethality (increase in survival) (LPS-induced lethality [2]): 83%
Reduction in arachidonic acid-induced Ear Swelling [3]: 72%
